According to ChEMBL document CHEMBL5113480, “Discovery of novel biphenyl-substituted pyridone derivatives as potent non-nucleoside reverse transcriptase inhibitors with promising oral bioavailability” (Eur J Med Chem, 2022):

Tests used:
[1] = molecular target: Cytochrome P450 2D6 (Homo sapiens, UniProt P10635); assay: Inhibition of CYP2D6 (unknown origin); assay type: ADME
[2] = system: Human immunodeficiency virus 1; assay: Antiviral activity against HIV-1 Y188L mutant infected in human MT4 cells assessed as reduction in viral replication by MTT assay; assay type: functional, organism-based; conditions: Human immunodeficiency virus 1, Y188L mutant
[3] = system: Human immunodeficiency virus 1; assay: Antiviral activity against HIV-1 K103N mutant infected in human MT4 cells assessed as reduction in viral replication by MTT assay; assay type: functional, organism-based; conditions: Human immunodeficiency virus 1, K103N mutant
[4] = system: Human immunodeficiency virus 1; assay: Antiviral activity against HIV-1 L100I mutant infected in human MT4 cells assessed as reduction in viral replication by MTT assay; assay type: functional, organism-based; conditions: Human immunodeficiency virus 1, L100I mutant
[5] = Cytotoxicity against human MT4 cells assessed as reduction on cell growth by MTT assay; assay type: toxicity, cell-based
[6] = system: Human immunodeficiency virus 1; assay: Antiviral activity against HIV-1 F227L-V106A mutant infected in human MT4 cells assessed as reduction in viral replication by MTT assay; assay type: functional, organism-based; conditions: Human immunodeficiency virus 1, F227L-V106A mutant
[7] = molecular target: Human immunodeficiency virus type 1 reverse transcriptase (Human immunodeficiency virus 1, UniProt Q72547); assay: Inhibition of wild type HIV-1 Reverse transcriptase
[8] = system: Human immunodeficiency virus 1; assay: Antiviral activity against HIV-1 ROD infected in human MT4 cells assessed as reduction in viral replication by MTT assay; assay type: functional, organism-based
[9] = system: Human immunodeficiency virus 1; assay: Antiviral activity against HIV-1 E138K mutant infected in human MT4 cells assessed as reduction in viral replication by MTT assay; assay type: functional, organism-based; conditions: Human immunodeficiency virus 1, E138K mutant
[10] = Selectivity index, ratio of CC50 for cytotoxicity against human MT4 cells to EC50 of Anti-HIV activity against HIV-1 IIIB infected in human MT4 cells; assay type: toxicity, cell-based; conditions: read-out: Ratio CC50/EC50
[11] = system: Human immunodeficiency virus 1; assay: Antiviral activity against HIV-1 Y181C mutant infected in human MT4 cells assessed as reduction in viral replication by MTT assay; assay type: functional, organism-based; conditions: Human immunodeficiency virus 1, Y181C mutant
[12] = system: Human immunodeficiency virus 1; assay: Antiviral activity against HIV-1 IIIB infected in human MT4 cells assessed as reduction in viral replication by MTT assay; assay type: functional, organism-based; conditions: Human immunodeficiency virus 1, IIIB
[13] = system: Human immunodeficiency virus 1; assay: Antiviral activity against HIV-1 K103N-Y181C mutant infected in human MT4 cells assessed as reduction in viral replication by MTT assay; assay type: functional, organism-based; conditions: Human immunodeficiency virus 1, K103N-Y181C mutant
[14] = molecular target: Voltage-gated inwardly rectifying potassium channel KCNH2 (Homo sapiens, UniProt Q12809); assay: Inhibition of human ERG potassium channel expressed in CHO cells by automated patch clamp electrophysiological assay; assay type: toxicity, cell-based
Sequence of Voltage-gated inwardly rectifying potassium channel KCNH2 (Q12809 whole entry): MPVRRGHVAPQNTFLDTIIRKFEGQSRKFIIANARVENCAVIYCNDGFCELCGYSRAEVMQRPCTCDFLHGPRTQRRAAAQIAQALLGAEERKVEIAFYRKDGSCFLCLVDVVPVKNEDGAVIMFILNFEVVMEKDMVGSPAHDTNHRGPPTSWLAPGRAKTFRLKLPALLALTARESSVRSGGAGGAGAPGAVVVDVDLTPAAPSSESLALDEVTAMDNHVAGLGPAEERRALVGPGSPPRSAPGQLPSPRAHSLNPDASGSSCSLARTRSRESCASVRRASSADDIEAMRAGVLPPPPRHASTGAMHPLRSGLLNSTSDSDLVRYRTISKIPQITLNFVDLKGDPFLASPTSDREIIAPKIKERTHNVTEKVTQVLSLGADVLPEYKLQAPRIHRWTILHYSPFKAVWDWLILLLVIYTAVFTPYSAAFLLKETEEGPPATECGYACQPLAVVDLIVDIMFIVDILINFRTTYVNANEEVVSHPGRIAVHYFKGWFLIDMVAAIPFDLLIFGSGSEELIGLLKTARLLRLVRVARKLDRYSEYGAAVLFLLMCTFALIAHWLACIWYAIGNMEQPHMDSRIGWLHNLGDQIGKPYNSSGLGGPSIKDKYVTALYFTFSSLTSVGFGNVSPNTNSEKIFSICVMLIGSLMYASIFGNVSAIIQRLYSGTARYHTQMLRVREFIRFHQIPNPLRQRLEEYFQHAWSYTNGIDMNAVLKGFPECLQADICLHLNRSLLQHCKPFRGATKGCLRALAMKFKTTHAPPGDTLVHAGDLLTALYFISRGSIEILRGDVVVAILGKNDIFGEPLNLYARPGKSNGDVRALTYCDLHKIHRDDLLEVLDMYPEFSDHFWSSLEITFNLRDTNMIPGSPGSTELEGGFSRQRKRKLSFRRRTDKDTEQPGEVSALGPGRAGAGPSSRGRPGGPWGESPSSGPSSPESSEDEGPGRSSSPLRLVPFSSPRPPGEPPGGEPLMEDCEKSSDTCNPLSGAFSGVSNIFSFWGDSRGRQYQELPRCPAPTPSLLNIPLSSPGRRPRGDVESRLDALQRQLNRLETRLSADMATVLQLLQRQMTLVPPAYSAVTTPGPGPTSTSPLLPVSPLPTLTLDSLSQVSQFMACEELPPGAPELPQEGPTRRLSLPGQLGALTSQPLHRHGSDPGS

Sequence of Cytochrome P450 2D6 (P10635 whole entry): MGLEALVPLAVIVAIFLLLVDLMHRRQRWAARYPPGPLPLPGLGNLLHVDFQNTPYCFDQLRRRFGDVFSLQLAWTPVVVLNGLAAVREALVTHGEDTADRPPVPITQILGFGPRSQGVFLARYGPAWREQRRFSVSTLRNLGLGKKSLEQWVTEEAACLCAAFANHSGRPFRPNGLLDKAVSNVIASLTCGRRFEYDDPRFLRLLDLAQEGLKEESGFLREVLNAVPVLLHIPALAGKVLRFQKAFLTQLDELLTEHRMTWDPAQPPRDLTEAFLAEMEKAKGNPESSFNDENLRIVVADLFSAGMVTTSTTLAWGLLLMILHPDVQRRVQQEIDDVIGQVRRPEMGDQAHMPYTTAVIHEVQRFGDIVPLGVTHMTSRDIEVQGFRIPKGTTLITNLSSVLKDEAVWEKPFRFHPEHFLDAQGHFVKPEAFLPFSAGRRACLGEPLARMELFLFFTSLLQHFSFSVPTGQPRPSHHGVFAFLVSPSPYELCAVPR

SMILES | IC50 [1] [nM] | EC50 [2] [µM] | EC50 [3] [nM] | EC50 [4] [nM] | CC50 [5] [µM] | EC50 [6] [µM] | IC50 [7] [µM] | EC50 [8] [µM] | EC50 [9] [nM] | selectivity ratio [10] | EC50 [11] [µM] | EC50 [12] [nM] | EC50 [13] [µM] | IC50 [14] [µM]
COc1ccc2c(c1)[C@]13CCCC[C@@H]1[C@H](C2)N(C)CC3 [DEXTROMETHORPHAN] | 43 |  |  |  |  |  |  |  |  |  |  |  |  | 
Cn1c(Cn2ccc(C(F)(F)F)c(Oc3c(F)cc(-c4cccc(C#N)c4)cc3F)c2=O)n[nH]c1=O |  | > 35 | 2240 | 1850 | 21.2 | > 35 | 2.57 | > 35 | 3060 | 18.7 | 8.64 | 1140 | > 35 | 
Cn1c(Cn2ccc(C(F)(F)F)c(Oc3ccc(-c4cc(F)cc(C#N)c4)cc3)c2=O)n[nH]c1=O |  | > 35 | 15500 | 9010 | 90.5 | > 35 | 8.1 | > 35 | 13900 | 5.95 | 42.2 | 15200 | > 35 | 
Cn1c(Cn2ccc(C(F)(F)F)c(Oc3c(F)cc(-c4ccc(F)c(C#N)c4)cc3F)c2=O)n[nH]c1=O |  | > 35 | 1200 | 1610 | 18.9 | > 35 | 1.65 | > 35 | 2090 | 30.7 | 4.69 | 620 | > 35 | 
Cc1cc(-c2cc(F)cc(C#N)c2)ccc1Oc1c(C(F)(F)F)ccn(Cc2n[nH]c(=O)n2C)c1=O |  | > 35 | 1270 | 1900 | 23.3 | > 35 | 5.34 | > 35 | 1900 | 17.6 | 5.96 | 1330 | 6.89 | 
Cn1c(Cn2ccc(C(F)(F)F)c(Oc3ccc(-c4ccc(F)c(C#N)c4)cc3Cl)c2=O)n[nH]c1=O |  | > 35 | 3870 | 3310 | 24.4 | > 35 | 10.3 | > 35 | 6780 | 5.39 | > 35 | 4530 | > 35 | 
Cn1c(Cn2ccc(C(F)(F)F)c(Oc3c(F)cc(-c4cc(F)cc(C#N)c4)cc3F)c2=O)n[nH]c1=O |  | > 35 | 2070 | 2970 | 16.6 | > 35 | 3.25 | > 35 | 5200 | 10.2 | > 35 | 1640 | > 35 | 
Cn1c(Cn2ccc(C(F)(F)F)c(Oc3ccc(-c4cccc(C#N)c4)cc3)c2=O)n[nH]c1=O |  | > 35 | 14300 | 10800 | 114 | > 35 | 14.4 | > 35 | 12200 | 23.7 | 39.1 | 4790 | > 35 | 
Cn1c(Cn2ccc(C(F)(F)F)c(Oc3cc(C#N)cc(-c4cc(F)cc(C#N)c4)c3)c2=O)n[nH]c1=O |  | 0.88 | 26 | 50 | 84.4 | > 35 | 0.17 | > 35 | 62 | 2810 | 0.18 | 30 | 0.42 | 
Cc1cc(Oc2c(C(F)(F)F)ccn(Cc3n[nH]c(=O)n3C)c2=O)ccc1-c1cccc(F)c1 |  | > 35 | 10900 | 2140 | 55.9 | > 35 | 4.71 | > 35 | 4000 | 20.1 | > 35 | 2770 | > 35 | 
Cc1cccc(-c2ccc(Oc3c(C(F)(F)F)ccn(Cc4n[nH]c(=O)n4C)c3=O)cc2C)c1 |  | > 35 | > 35000 | 3230 | 23.8 | > 35 | 6.54 | > 35 | > 35000 | 5.43 | 7.51 | 4380 | > 35 | 
Cn1c(Cn2ccc(C(F)(F)F)c(Oc3cc(Cl)cc(C#N)c3)c2=O)n[nH]c1=O [DORAVIRINE] |  | 0.5 | 42 | 6.6 | 293 | 17.4 | 0.044 | > 35 | 7.5 | 22600 | 0.025 |  | 0.142 | 88
Cc1cc(-c2ccc(F)c(C#N)c2)ccc1Oc1c(C(F)(F)F)ccn(Cc2n[nH]c(=O)n2C)c1=O |  | > 35 | 1590 | 2730 | 25 | > 35 | 5.49 | > 35 | 2310 | 13.7 | 6.03 | 1830 | 8.59 | 
Cn1c(Cn2ccc(C(F)(F)F)c(Oc3cc(C#N)cc(-c4ccc(C#N)cc4)c3)c2=O)n[nH]c1=O |  | 0.61 | 78 | 70 | 142 | > 35 | 0.52 | > 35 | 82 | 3110 | 0.45 | 46 | 2 | 
Cn1c(Cn2ccc(C(F)(F)F)c(Oc3cc(C#N)cc(-c4ccc(F)c(C#N)c4)c3)c2=O)n[nH]c1=O |  | 1.52 | 51 | 89 | 87.9 | > 35 | 0.29 | > 35 | 77 | 2060 | 0.45 | 43 | 1.01 | 
Cc1ccc(-c2cc(C#N)cc(Oc3c(C(F)(F)F)ccn(Cc4n[nH]c(=O)n4C)c3=O)c2)cc1 |  | 1.66 | 540 | 97 | > 267 | > 35 | 1.53 | > 35 | 150 | > 1150 | 0.21 | 230 | 5.13 | 
